Laboratory results published in publication PMC3454389, “Mining the Sinorhizobium meliloti Transportome to Develop FRET Biosensors for Sugars, Dicarboxylates and Cyclic Polyols” (PLoS ONE, 2012).

Columns and labels:
[1] = test system: genes encoding the ABC-transporter (RL2376-9); details: RL2376, Table 1; cited from earlier work
[2] = molecular target: T1, RL2376-CY (Rhizobium leguminosarum, UniProt Q1MGQ3); test: FRET biosensor RL2376-CY, in vitro ligand titration; format: binding; details: pCYS (pLMB394), Tris-HCl pH 8.5, read-out: Kd
T1 sequence (Q1MGQ3 24-320): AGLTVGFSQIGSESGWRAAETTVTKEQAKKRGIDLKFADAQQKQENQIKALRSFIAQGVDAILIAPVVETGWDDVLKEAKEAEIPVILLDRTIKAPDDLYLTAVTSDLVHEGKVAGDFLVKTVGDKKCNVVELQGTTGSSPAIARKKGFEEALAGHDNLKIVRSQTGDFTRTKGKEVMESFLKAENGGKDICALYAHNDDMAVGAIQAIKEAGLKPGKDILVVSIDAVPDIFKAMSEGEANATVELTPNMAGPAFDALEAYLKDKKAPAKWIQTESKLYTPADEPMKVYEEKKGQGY
Experimental: (§1) Ligand-induced FRET ratio changes of purified FRET biosensor were screened using a LS55 luminescence spectrometer (PerkinElmer Instruments). Excitation (ex.) was at (λ/slit width) 433/10 nm (CFP) or 549/10 nm (OFP). Emission (em.) was measured at 475/10 nm (CFP), 527/10 nm (YFP), 573/10 nm (OFP) and 644/10 nm (RFP). To confirm that Aphrodite and mKate2 were properly folded their fluorescence was individually tested by direct excitation at 510/6 nm and 588/10 nm respectively.
(§2) Affinity constants (Kd) of FRET biosensors with specific ligands were established using a monochromator microplate reader (Safire, Tecan, Switzerland; CFP ex.: (λ\bandwidth) 433/12 nm, em.: 475/12 nm; YFP em.: 527/12 nm. OFP ex.: 533/12 nm, em.: 563/12 nm; RFP em.: 615/12 nm). Proteins were diluted to give relative fluorescence units (RFU) in the detection range of 30,000 to 50,000 RFU at a gain of 90 to 100, and then were added to a dilution series (10^−3 to 10^−11 M) of ligand in Tris-HCl (pH 8.5, 50 mM). The change in relative emission intensities at 527/477 nm (YFP/CFP) or 615/563 nm (RFP/OFP) was used to determine Kd by fitting the titration curves to a single-site-binding isotherm: [drawing 1] with: R, ratio; Rapo, ratio without ligand; Rsat, ratio at saturation of ligand; n, number of equal binding sites; [L], ligand concentration. Non-linear regression was used to fit the curves using SigmaPlot 11 (Systat Software Inc.) (Hill equation, 4 Parameters, b = 1). All measurements were done in quadruplicate.

[3] = test system: RL2376-RO; test: RL2376-RO, FRET ratio change on ligand; format: binding, Rhizobium leguminosarum
Experimental: as §1
as §2, with “Non-linear regression was used to fit the curves using SigmaPlot 11 (Systat Software Inc.) (Hill equation, 4 Parameters, b = 1). All measurements were done in quadruplicate.” left out

[4] = molecular target: YtfQ; set-up: method as in PMID 19744923; details: YtfQ from E. coli; cited from earlier work

Q: Which results are given for `O=C[C@H](O)[C@@H](O)[C@@H](O)[C@H](O)CO` [D-galactose]?
A: Inducer of gene expression (fold change) [1]: D-galactose (2.6) fold; Kd [2]: 5.3 µM; change in FRET ratio on binding ligand [3]: no change in FRET ratio; Kd [4]: 1.7 ± 0.3 µM
